According to patent publication US20130345058A1, “USE OF LIPOCHITO-OLIGOSACCHARIDE COMPOUNDS FOR SAFEGUARDING SEED SAFETY OF TREATED SEEDS” (priority 2011, published 2013):

What was measured:
Assay type in all cases: in vivo
[1] = system: Wheat kernels; assay: Germination rate of wheat in combination with fungicides (greenhouse); conditions: fungicides 25 g/dt in NMP, compound A1 0.1 mg/ha, soil, greenhouse 15° C., 70% humidity, 7 days, solvent control 69
Method: The test is performed under greenhouse conditions.
Wheat kernels were treated with different fungicides (25 g/dt in NMP) or a mixture of compound A1 (0.1 mg/ha in 1:1, acetonitril/water) with the fungicides. Kernels were planted in soil and grown in the greenhouse at 15° C., 70% humidity, 14 h day/light cycle for 7 days.
Controls are performed in the same conditions in the absence of active ingredients. Assessment consisted of counting seedlings per treatment.

[2] = system: wheat; assay: Germination rate of wheat in combination with insecticides (greenhouse); conditions: thiacloprid 1.00 mg ai/corn, compound A1 1 mg/ha, greenhouse 20° C., 80% humidity, 4 days, solvent control 64
Method: (§1) The test was performed under greenhouse conditions. Kernels were treated with different insecticides (ready formulated) or a mixture of compound A1 (1 mg/ha in 1:1, acetonitril/water) with the insecticides. Kernels were planted in soil and grown in the greenhouse at 20° C., 80% humidity, 12 h day/light cycle for 4 days (wheat) and at 10° C., 80% humidity, 12 h day/light cycle for 9 days (maize). Controls are performed in the same conditions in the absence of active ingredients. Assessment consisted of counting seedlings per treatment.

[3] = system: maize; assay: Germination rate of maize in combination with insecticides (greenhouse); conditions: clothianidin 1.25, imidacloprid 0.75 mg ai/corn, compound A1 1 mg/ha, greenhouse 10° C., 80% humidity, 9 days, solvent control 17
Method: as §1

Row | SMILES | % germination [1] [%] | also measured
1 | Cc1nn(C)c(F)c1C(=O)Nc1ccccc1C(C)CC(C)C (stereo not drawn) [Penflufen] | 47 | 
2 | N#Cc1c[nH]cc1-c1cccc2c1OC(F)(F)O2 [fludioxonil] | 23 | 
3 | N#C/N=C1\SCCN1Cc1ccc(Cl)nc1 [thiacloprid] |  | germination % wheat 4 d [2]: 9%
4 | CN/C(=N\[N+](=O)[O-])NCc1cnc(Cl)s1 [clothianidin] |  | germination % maize 9 d [3]: 8%
5 | CO/N=C(/C1=NOCCO1)c1ccccc1Oc1ncnc(Oc2ccccc2Cl)c1F [fluoxastrobin] | 4 | 
6 | CC(C)(C)C(O)(CCc1ccc(Cl)cc1)Cn1cncn1 (stereo not drawn) [tebuconazole] | 21 | 
